The results in this text go back to patent US9157904B2, “Wnt antagonists and methods of treatment and screening” (OncoMed Pharmaceuticals, Inc., priority 2010, dated 2015).

Series [1] is described as follows: Pharmacokinetics of FZD8-Fc in rat. The class given is in vivo, Sprague Dawley rats. To be noted: tail vein, plasma.
Method: The pharmacokinetics of FZD8-Fc (54F03) were assessed in rats in a two week pharmacokinetics (PK) study using doses of 2 mg/kg and 10 mg/kg. Sprague Dawley rats, five males in each group, were dosed with FZD8-Fc via the tail vein at 2 mg/kg or 10 mg/kg and followed for two weeks with samples collected at the time points 1, 24, 48, 72, 96, 168, 240, and 336 hours. At each time point, 1 ml of blood was collected into potassium-EDTA tubes and centrifuged. The plasma supernatants were collected and frozen until the samples were analyzed.
The level of FZD8-Fc fusion protein present in the plasma at each time point was quantified and the half-life of FZD8-Fc was calculated for the two doses.
The test system of the next series is PN21 pancreas tumor. The experiment in a line: PN21 pancreas tumor xenograft, tumor growth. The format is in vivo, NOD/SCID mice. The conditions noted are these: FZD8-Fc 15 mg/kg i.p. once weekly. Here is the method: The anti-tumor activity of FZD8-Fc (54F03) was evaluated in the PN21 pancreas tumor xenograft model. Dissociated OMP-PN21 cells (50,000 per animal) were injected subcutaneously into 6-8 week old male NOD/SCID mice. Tumor growth was monitored weekly and tumor measurements were initiated once tumors were palpable. On day 36, mice with average tumor volumes of 144 mm^3 were randomized into 4 groups of 9 animals each. Animals were injected with control antibody, FZD8-Fc (15 mg/kg), gemcitabine (2 mg/kg) or a combination of FZD8-Fc and gemcitabine. Administration of the FZD8-Fc and gemcitabine was performed via injection into the intraperitoneal cavity, once weekly. Tumors were measured twice a week and tumor volume was determined as described herein.

The next series deals with PN21 tumors. The series can be described thus: Alcian blue and Ki67 staining of treated PN21 tumors. The format is in vivo, NOD/SCID mice. Here is the method:
The cell differentiation capability of FZD8-Fc was also evaluated in the OMP-PN21 pancreas tumor xenograft model. PN21 tumors from studies described in Example 8 were harvested and fixed in formalin, embedded in paraffin, and tumor sections of 4 μm thickness were cut. After deparaffinization and hydration, the tumor sections were subjected to an antigen retrieval process in Tris buffer (pH 9.5). Sections were incubated with hydrogen peroxide (Sigma-Aldrich, St Louis, Mo.) for 10 minutes to block endogenous peroxidases. Anti-Ki67 antibody (clone MIB-1, Dako, Carpinteria, Calif.) in blocking buffer (3% NHS, 1% BSA, 0.1% Tween-20 in PBS) at 1:200 dilution was added to each section and incubated for 1 hour. Slides were rinsed 3 times in PBST for 5 minutes each. Anti-mouse secondary antibody conjugated with HRP (ImmPRESS™ anti-mouse, Vector Laboratories Inc., Burlingame, Calif.) was added to the slides and incubated for 30 minutes. After multiple washes with PBST, Vector Nova Red substrate (Vector Laboratories Inc., Burlingame, Calif.) was added for localization of Ki67 antigen. The sections were treated with aqueous acetic acid for 5 minutes at room temperature. The sections were then treated with 1% alcian blue in 3% aqueous acetic acid for 30 minutes and washed with water. Sections were counter-stained in neutral fast red, dehydrated and mounted. […]

Series [2] relates to C28 colon tumor xenografts. The series can be described thus: C28 colon tumor xenograft, doses and dosing regimen. The format is in vivo, NOD/SCID mice. The conditions noted are these: from day 2. Here is the method: The effect of multiple doses and dosing regimen of FZD8-Fc (54F03) on the growth of C28 colon tumor xenografts was analyzed. Dissociated C28 cells (10,000 per animal) were injected subcutaneously into 6-8 week old male NOD/SCID mice. On day 2, mice were randomized into 6 groups of 10 animals each. Animals were injected with either control antibody or FZD8-Fc at doses of 1.5 mg/kg (twice a week), 5 mg/kg (once and twice a week) and 15 mg/kg (once and twice a week). Administration of the antibody and FZD8-Fc was performed via injection into the intraperitoneal cavity. Tumor growth was monitored weekly and tumor measurements were initiated once tumors were palpable. Tumors were measured twice a week and tumor volume was determined as described herein.

The subject of series [3] is PN4 tumors. The experiment in a line: Alcian blue staining of treated PN4 tumors. The format is in vivo, NOD/SCID mice. The conditions noted are these: day 85, vs control antibody or gemcitabine. Here is the method:
Increased cell differentiation of PN4 and PN8 tumors with FZD8-Fc treatment. Control and treated tumors from the OMP-PN4 xenograft study described above (Example 3) were harvested at the end of the study (day 85). Tumors were fixed in formalin, embedded in paraffin, and tumor sections of 4 μm thickness were cut. After deparaffinization and hydration, the sections were treated with aqueous acetic acid for 5 minutes at room temperature. The sections were then treated with 1% alcian blue in 3% aqueous acetic acid for 30 minutes and washed with water. Sections were counter-stained in neutral fast red, dehydrated and mounted. Using this method, sialomucins in the tissue samples stain blue and the background appears as pink or red.

The subject of series [4] is PN4 tumors. The experiment in a line: Flow cytometry for ESA and CD44 on treated PN4 tumors. The conditions noted are these: PN4 tumors harvested day 85, 5 tumors pooled; control antibody 12.7%. The class given is in vivo, NOD/SCID mice. Here is the method:
Control and treated tumors from the OMP-PN4 xenograft study described above were harvested at the end of the study (day 85). The tumors were processed and dissociated into single cells. Single cell suspensions derived from 5 tumors of each treatment group were pooled, and the pooled samples were then incubated on ice for 30 min with antibodies that bind mouse cells selectively (α-mouse CD45-biotin 1:200 dilution and rat α-mouse H2Kd-biotin 1:100 dilution, BioLegend, San Diego, Calif.), followed by addition of streptavidin-labeled magnetic beads (Invitrogen, Carlsbad, Calif.). Mouse cells were removed with the aid of a magnet. For analysis of human cell surface markers, the single tumor cell suspension was stained with anti-ESA (Biomeda, Hayward, Calif.) and anti-CD44 (BD Biosciences, San Jose, Calif.) antibodies which were directly conjugated to fluorochromes. Dead cells were excluded by using the viability dye DAPI. Flow cytometry was performed using a FACS Aria instrument (Becton Dickinson, Franklin Lakes, N.J.). Side scatter and forward scatter profiles were used to eliminate cell clumps.
(In flow cytometry, cells or beads pass a laser one at a time.)

For orientation: half-life means the time in which the quantity being followed falls by half. The low end stands for fast loss, the high end for slow loss. Regarding “54F03: Fri domain of human FZD8 fused to human IgG1 Fc with GRA linker; SEQ ID NO:1”, the half-life in series [1] (2 mg/kg) worked out at 163 h; in series [1] (10 mg/kg) it was 157 h. In addition, in the series on PN21 pancreas tumor, the “reduction in tumor growth as compared to control” value came to 66%. Also, the “proliferating cells denoted by expression of Ki67” value with PN21 tumors is listed as “decrease in proliferating cells”. Also, the “cells expressing sialomucins (alcian blue)” value in the series with PN21 tumors (vs control antibody or gemcitabine alone) and in the series on PN4 tumors [3] was “increase in cells expressing sialomucins” each time. Further, in series [2] (1.5 mg/kg twice a week i.p.), the “reduction of growth over control antibody” value came out at 52%. Further, the “reduction in tumor growth over control antibody” value in series [2] (15 mg/kg twice weekly i.p.) turned out to be 83%. For the same substance, the “bulk tumor population expressing both ESA and CD44 at high levels (double positive population)” value with PN4 tumors [4] was determined as 1.9%.
